PubChem BioAssay AID743503 (Broad Institute, 2014)
Activity calls are given as the source filed them.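 Rule for the calls: active = IC50 under 35 µM for lowering the luciferase reporter signal in dopamine receptor counterscreen cells; inactive = IC50 over 35 µM.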

tested on: HEK293 dopamine receptor CRE-luciferase, luminescence; test: dopamine receptor antagonists, CRE-luciferase reporter, dose response, counter-screen for LGR2 antagonist project, cell-based, HEK293, luminescence, dry powder, set 2 (AID 743503)

**Q.** How did the IC50 turn out when `C[C@H](CO)N1C[C@H](C)[C@H](CN(C)C(=O)Nc2ccc(F)cc2)OCCCC[C@H](C)Oc2ccc(NC(=O)C3CCCC3)cc2C1=O` was run?
**A.** Its IC50 is > 35 µM (inactive).

**Q.** For `C[C@H](CO)N1C[C@H](C)[C@H](CN(C)C(=O)Nc2ccc(F)cc2)OCCCC[C@H](C)Oc2ccc(NC(=O)C3CCCCCC3)cc2C1=O`, which IC50 is on record?
**A.** The IC50 was > 35 µM (inactive).

**Q.** Which IC50 does the source give for `C[C@H](CO)N1C[C@H](C)[C@H](CN(C)C(=O)Nc2ccc(Cl)cc2)OCCCC[C@H](C)Oc2ccc(NC(=O)C3CCCCC3)cc2C1=O` here?
**A.** The IC50 was > 35 µM (inactive).

**Q.** For `C[C@H]1CCCCO[C@@H](CN(C)C(=O)Nc2cccc3ccccc23)[C@@H](C)CN([C@@H](C)CO)C(=O)c2cc(NC(=O)C3CCCCC3)ccc2O1`, which IC50 is on record?
**A.** The IC50 was > 35 µM (inactive).

**Q.** For `C[C@H](CO)N1C[C@H](C)[C@H](CN(C)C(=O)Nc2cccc3ccccc23)OCCCC[C@H](C)Oc2ccc(NC(=O)C3CCCCC3)cc2C1=O`, which IC50 is on record?
**A.** The IC50 was > 35 µM (inactive).

**Q.** How did the IC50 turn out when `C[C@@H]1CN([C@@H](C)CO)C(=O)c2cc(NC(=O)C3CCCCC3)ccc2O[C@@H](C)CCCCO[C@H]1CN(C)C(=O)Nc1cccc2ccccc12` was run?
**A.** The IC50 was > 35 µM (inactive).

**Q.** How did the IC50 turn out when `C[C@H](CO)N1C[C@H](C)[C@H](CN(C)C(=O)Nc2ccccc2F)OCCCC[C@H](C)Oc2ccc(NC(=O)C3CCCCC3)cc2C1=O` was run?
**A.** The IC50 was > 35 µM (inactive).

**Q.** `Cc1ccc(NC(=O)N(C)C[C@@H]2OCCCC[C@H](C)Oc3ccc(NC(=O)C4CCCCC4)cc3C(=O)N([C@H](C)CO)C[C@@H]2C)cc1` was tested. Which IC50 did it give?
**A.** The IC50 was > 35 µM (inactive).

**Q.** For `C[C@H](CO)N1C[C@H](C)[C@H](CN(C)C(=O)Nc2ccc3ccccc3c2)OCCCC[C@H](C)Oc2ccc(NC(=O)C3CCCCC3)cc2C1=O`, which IC50 is on record?
**A.** The IC50 was > 35 µM (inactive).

**Q.** For `C[C@H](CO)N1C[C@H](C)[C@H](CN(C)C(=O)Nc2cccc(F)c2)OCCCC[C@H](C)Oc2ccc(NC(=O)C3CCCCC3)cc2C1=O`, which IC50 is on record?
**A.** The IC50 was > 35 µM (inactive).
